# Measured values as given in PubChem BioAssay (NCI).
#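 Protocol summary: plate cells (96-well), add compound at 5 concentrations, incubate 48 h, interpolate endpoints linearly. GI50 = concentration required for 50% inhibition of growth. TGI: concentration producing complete growth inhibition.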
# Columns and labels:
# Assay in all cases: NCI-60 cell line screen, 48 h
# [1] = tested on: SN12C renal
# [2] = tested on: SF-539 CNS
# [3] = tested on: HOP-62 NSCLC
# [4] = tested on: OVCAR-3 ovarian
# [5] = tested on: OVCAR-8 ovarian
# [6] = tested on: NCI-H460 lung
# [7] = tested on: UACC-62 melanoma
# [8] = tested on: HS 578T breast
# [9] = tested on: COLO 205 colon
# [10] = tested on: HCT-116 colon
# [11] = tested on: ACHN renal
# [12] = tested on: SK-MEL-28 melanoma
# [13] = tested on: A498 renal
# [14] = tested on: A549 NSCLC
# [15] = tested on: SF-295 CNS
# [16] = tested on: T-47D breast
# [17] = tested on: KM12 colon
# [18] = tested on: RXF 393 renal
# [19] = tested on: SW-620 colon
# [20] = tested on: RPMI-8226 leukemia
# [21] = tested on: NCI-H226 lung
# [22] = tested on: M14 melanoma
# [23] = tested on: MDA-MB-435
# [24] = tested on: NCI/ADR-RES ovarian
# [25] = tested on: SNB-19 CNS
# [26] = tested on: SF-268 CNS
# [27] = tested on: DU-145 prostate
# [28] = tested on: NCI-H23 lung
# [29] = tested on: K-562 leukemia
# [30] = tested on: SK-MEL-5 melanoma
# [31] = tested on: 786-0 renal
# [32] = tested on: UO-31 renal
# [33] = tested on: OVCAR-4 ovarian
# [34] = tested on: MCF7 breast
# [35] = tested on: MDA-N
# [36] = tested on: NCI-H522 lung
# [37] = tested on: IGROV1 ovarian
# [38] = tested on: SNB-75 CNS
# [39] = tested on: SK-MEL-2 melanoma
# [40] = tested on: U251 CNS
# [41] = tested on: UACC-257 melanoma
# [42] = tested on: HCT-15 colon
# [43] = tested on: BT-549 breast
# [44] = tested on: MALME-3M melanoma
# [45] = tested on: CAKI-1 renal
# [46] = tested on: SK-OV-3 ovarian
# [47] = tested on: HOP-92 NSCLC
# [48] = tested on: MDA-MB-231 breast
# [49] = tested on: PC-3 prostate
# [50] = tested on: EKVX NSCLC
# [51] = tested on: OVCAR-5 ovarian
# [52] = tested on: TK-10 renal
# [53] = tested on: HT29 colon
# [54] = tested on: HL-60(TB) leukemia
# [55] = tested on: LOX IMVI melanoma
# [56] = tested on: CCRF-CEM leukemia
# [57] = tested on: HCC-2998 colon
# [58] = tested on: MOLT-4 leukemia
# [59] = tested on: SR leukemia
structure (smiles),measurement,setting,value
O=C(O)c1c(Cl)c(Cl)c(Cl)c(Cl)c1C(=O)Nc1ccc2cn[nH]c2c1,TGI,[1],> 100 µM
same,TGI,[2],> 100 µM
same,TGI,[3],> 100 µM
same,TGI,[4],> 100 µM
same,TGI,[5],> 100 µM
same,TGI,[6],> 100 µM
same,TGI,[7],> 100 µM
same,TGI,[8],> 100 µM
same,TGI,[9],> 100 µM
same,TGI,[10],> 100 µM
same,TGI,[11],> 100 µM
same,TGI,[12],> 100 µM
same,TGI,[13],> 100 µM
same,TGI,[14],> 100 µM
same,TGI,[15],> 100 µM
same,TGI,[16],> 100 µM
same,TGI,[17],> 100 µM
same,TGI,[18],> 100 µM
same,TGI,[19],> 100 µM
same,TGI,[20],> 100 µM
same,TGI,[21],> 100 µM
same,TGI,[22],> 100 µM
same,TGI,[23],> 100 µM
same,TGI,[24],> 100 µM
same,TGI,[25],> 100 µM
same,TGI,[26],> 100 µM
same,TGI,[27],> 100 µM
same,TGI,[28],> 100 µM
same,TGI,[29],> 100 µM
same,TGI,[30],> 100 µM
same,TGI,[31],> 100 µM
same,TGI,[32],> 100 µM
same,TGI,[33],> 100 µM
same,TGI,[34],> 100 µM
same,TGI,[35],> 100 µM
same,TGI,[36],> 100 µM
same,TGI,[37],> 100 µM
same,TGI,[38],> 100 µM
same,TGI,[39],> 100 µM
same,TGI,[40],> 100 µM
same,TGI,[41],> 100 µM
same,TGI,[42],> 100 µM
same,TGI,[43],> 100 µM
same,TGI,[44],> 100 µM
same,TGI,[45],> 100 µM
same,TGI,[46],> 100 µM
same,TGI,[47],> 100 µM
same,TGI,[48],> 100 µM
same,TGI,[49],> 100 µM
same,TGI,[50],> 100 µM
same,TGI,[51],> 100 µM
same,TGI,[52],> 100 µM
same,TGI,[53],> 100 µM
COC(=O)C1CC23C4=C(CCC41)CCC1CN4CC(C)C(CC(OC(C)=O)C12COC(C)=O)C43O (stereo unspecified),TGI,[54],> 100 µM
same,TGI,[1],> 100 µM
same,TGI,[55],> 100 µM
same,TGI,[2],> 100 µM
same,TGI,[3],> 100 µM
same,TGI,[4],> 100 µM
same,TGI,[5],> 100 µM
same,TGI,[6],> 100 µM
same,TGI,[7],> 100 µM
same,TGI,[56],> 100 µM
same,TGI,[8],> 100 µM
same,TGI,[9],> 100 µM
same,TGI,[10],> 100 µM
same,TGI,[11],> 100 µM
same,TGI,[12],> 100 µM
same,TGI,[13],> 100 µM
same,TGI,[14],> 100 µM
same,TGI,[15],> 100 µM
same,TGI,[16],> 100 µM
same,TGI,[17],> 100 µM
same,TGI,[18],> 100 µM
same,TGI,[19],> 100 µM
same,TGI,[20],> 100 µM
same,TGI,[22],> 100 µM
same,TGI,[23],> 100 µM
same,TGI,[24],> 100 µM
same,TGI,[25],> 100 µM
same,TGI,[26],> 100 µM
same,TGI,[27],> 100 µM
same,TGI,[57],> 100 µM
same,TGI,[28],> 100 µM
same,TGI,[29],> 100 µM
same,TGI,[30],> 100 µM
same,TGI,[31],> 100 µM
same,TGI,[32],> 100 µM
same,TGI,[33],> 100 µM
same,TGI,[34],> 100 µM
same,TGI,[35],> 100 µM
same,TGI,[36],> 100 µM
same,TGI,[37],> 100 µM
same,TGI,[38],> 100 µM
same,TGI,[39],> 100 µM
same,TGI,[40],> 100 µM
same,TGI,[41],> 100 µM
same,TGI,[42],> 100 µM
same,TGI,[43],> 100 µM
same,TGI,[44],> 100 µM
same,TGI,[45],> 100 µM
same,TGI,[58],> 100 µM
same,TGI,[46],> 100 µM
same,TGI,[47],> 100 µM
same,TGI,[48],> 100 µM
same,TGI,[49],> 100 µM
same,TGI,[50],> 100 µM
same,TGI,[51],> 100 µM
same,TGI,[52],> 100 µM
same,TGI,[53],> 100 µM
CCOC(=O)/C(C#N)=C1\SS/C(=C(/C#N)C(=O)OCC)S1,GI50,[54],22.6 µM
same,TGI,[54],63 µM
same,GI50,[1],19.9 µM
same,TGI,[1],43.3 µM
same,GI50,[55],13.9 µM
same,TGI,[55],57.4 µM
same,GI50,[2],22.2 µM
same,TGI,[2],42.8 µM
same,GI50,[3],26.1 µM
same,TGI,[3],86.7 µM
same,GI50,[4],14.5 µM
same,TGI,[4],28.8 µM
same,GI50,[5],20.3 µM
same,TGI,[5],41.1 µM
same,GI50,[6],32 µM
same,TGI,[6],> 100 µM
same,GI50,[7],15.8 µM
same,TGI,[7],32.6 µM
same,GI50,[56],4.62 µM
same,TGI,[56],67.7 µM
same,GI50,[8],47.9 µM
same,TGI,[8],> 100 µM
same,GI50,[9],0.861 µM
same,TGI,[9],2.67 µM
same,GI50,[10],14.2 µM
same,TGI,[10],33.5 µM
same,GI50,[11],14.8 µM
same,TGI,[11],29.5 µM
same,GI50,[12],18.9 µM
same,TGI,[12],34.1 µM
same,GI50,[13],63.9 µM
same,TGI,[13],> 100 µM
same,GI50,[14],40 µM
same,TGI,[14],> 100 µM
same,GI50,[15],> 100 µM
same,TGI,[15],> 100 µM
same,GI50,[16],17.9 µM
same,TGI,[16],48.2 µM
same,GI50,[59],3.59 µM
same,TGI,[59],> 100 µM
same,GI50,[17],20.1 µM
same,TGI,[17],41.3 µM
same,GI50,[18],13.3 µM
same,TGI,[18],26.4 µM
same,GI50,[19],5.4 µM
same,TGI,[19],32.7 µM
same,GI50,[20],19.9 µM
same,TGI,[20],73.5 µM
same,GI50,[21],19.6 µM
same,TGI,[21],38.6 µM
same,GI50,[22],17 µM
same,TGI,[22],35.9 µM
same,GI50,[23],17.1 µM
same,TGI,[23],33.1 µM
same,GI50,[24],25.8 µM
same,TGI,[24],65.3 µM
same,GI50,[25],35.8 µM
same,TGI,[25],> 100 µM
same,GI50,[26],20.5 µM
same,TGI,[26],41 µM
same,GI50,[27],18.2 µM
same,TGI,[27],33.6 µM
same,GI50,[57],20.1 µM
same,TGI,[57],39.9 µM
same,GI50,[28],23.5 µM
same,TGI,[28],61.2 µM
same,GI50,[29],7.99 µM
same,TGI,[29],> 100 µM
same,GI50,[30],32 µM
same,TGI,[30],> 100 µM
same,GI50,[31],19.2 µM
same,TGI,[31],34.1 µM
same,GI50,[32],13.2 µM
same,TGI,[32],26.1 µM
same,GI50,[33],15.1 µM
same,TGI,[33],29.8 µM
same,GI50,[34],18.3 µM
same,TGI,[34],41.1 µM
same,GI50,[36],2.47 µM
same,TGI,[36],7.59 µM
same,GI50,[37],14.2 µM
same,TGI,[37],33 µM
same,GI50,[38],22.4 µM
same,TGI,[38],57.5 µM
same,GI50,[39],18.7 µM
same,TGI,[39],40.2 µM
same,GI50,[40],19 µM
same,TGI,[40],38 µM
same,GI50,[41],18.3 µM
same,TGI,[41],34.8 µM
same,GI50,[42],18 µM
same,TGI,[42],61.4 µM
same,GI50,[43],17.8 µM
same,TGI,[43],32.7 µM
same,GI50,[44],11.6 µM
same,TGI,[44],27.4 µM
same,GI50,[45],4.38 µM
same,TGI,[45],18.6 µM
same,GI50,[58],10.8 µM
same,TGI,[58],57.8 µM
same,GI50,[46],> 100 µM
same,TGI,[46],> 100 µM
same,GI50,[47],14.3 µM
same,TGI,[47],28.3 µM
same,GI50,[48],14.9 µM
same,TGI,[48],29.6 µM
same,GI50,[49],19.7 µM
same,TGI,[49],40.7 µM
same,GI50,[50],19.6 µM
same,TGI,[50],50.4 µM
same,GI50,[51],22.4 µM
same,TGI,[51],42.8 µM
same,GI50,[52],6.81 µM
same,TGI,[52],20.3 µM
same,GI50,[53],3.92 µM
same,TGI,[53],22.3 µM
